Peptide text beside a SMILES is read from it. * marks the point of attachment. Cbz = O=C(OCc1ccccc1)*
How the values were obtained:
[1] = tested on: Smad1; test: Smurf1-induced Smad1 degradation in C2C12 cells transfected with Smad1 and Smurf1; assay type: cell-based; details: 24 h
Protocol: Effects of proteasome inhibitors on steady-state levels of Smad1 protein were examined in C2C12 cells. C2C12 cells were plated in 6-well culture plates at density of 2×10^5 cells/well and cultured with DMEM supplemented with 10% FCS for 24 h. The cells were then transfected with Smad1 and Smurf1 expression plasmids. 24 h after transfection, the cells were treated with different proteasome inhibitors at different concentrations and incubated for additional 24 h.

[2] = tested on: endogenous Smad1; test: Steady-state levels of endogenous Smad1 in C2C12 cells, Western blot; assay type: cell-based; details: 24 hours, vs control
Protocol: To determine the effects of proteasome inhibitors on the steady-state levels of endogenous Smad1 protein, C2C12 cells were plated in 6-well culture plates (2×10^5 cells/well) and cultured with DMEM supplemented with 10% FCS. 24 h later, proteasome inhibitors lactacystin (10 μM), MG-132 (2.5 and 5 μM), PS-1 (25 and 50 nM) were added into C2C12 cells. The cells were cultured with the proteasome inhibitors for 24 hours and then the cell lysates were extracted. The steady-state levels of endogenous Smad1 were analyzed by Western blot using Smad1 antibody (Santa Cruz).

[3] = tested on: BMP-4 mRNA; test: BMP-4 mRNA expression, MG-63 cells; assay type: cell-based; details: cultured human MG-63 osteoblastic cells
Protocol: (§1) 2T3 murine osteoblast precursor cells and MG-63 human osteoblastic cells were cultured with α minimal essential medium (αMEM) supplemented with 10% fetal calf serum (FCS).
(§2) MG-63 cells were plated in T-150 flasks at density of 2×10^6 cells per flask for RNA extraction. Total RNA was extracted from MG-63 cells using RNAzol B method (Tel-test Inc., Houston, Tex.). Enrichment of polyadenylated RNA was obtained using Stratagene oligo(dT) cellulose columns (Stratagene, San Diego, Calif.). 5 μg of poly (A^+) RNA was denatured in 2.2 M formaldehyde and 50% fornamide and run on an 1% agarose gel containing 2.2 M formaldehyde. The gels were transferred to a Nytran filter (Schleicher and Schuell, Keene, N.H.) by capillary blotting with 20× SSC (1× SSC=150 mM NaCl, 15 mM Na Citrate, pH 7.0). The RNA was then cross-linked to the filter by UV irradiation (Stratalink, Stratagene, San Diego, Calif.). Prehybridization was carried out at 56° C. in 5× SSC containing 50% formamide and 150 μg/ml of denatured salmon sperm DNA. After 1-2 h prehybridization, the DNA probes were added to the hybridization solution at a concentration of 5×10^5 cpm/ml. Hybridization was carried out for 15 h at 56° C. […] The filters were dried at room temperature, exposed at −70° C. overnight and then quantitated in cpm using an AMBIS Image Acquisition and Analysis System (AMBIS, San Diego, Calif.).

[4] = tested on: Gli3 precursor protein (Gli3^190); test: Gli3 precursor (Gli3^190) degradation in C3H10T1/2 cells, Western blot; assay type: cell-based, mouse; details: IBMX 200 μM
Protocol: (§3) Full-length human Gli3 expression plasmid (pact-Flag-Gli3) was kindly provided by Dr. Shunsuke Ishii (Dai, P., et al., J. Biol. Chem. (1999) 274:8143-8152). The molecular weights for expressed Gli3 proteins by transfection of full-length Gli3 cDNA is about 190 kd (Gli3^190) and the processed form of Gli3 is about 85 kd (Gli3^85).
C3H10T1/2 multipotent progenitor cells were cultured with RPMI […] medium. The medium was purchased from Sigma (St. Louis, Mo.) and supplemented with 10% fetal calf serum (FCS). C3H10T1/2 cells were plated in 6-well culture plates at the density of 2×10^5 cells/well and transfected with Flag-Gli3 (2 μg/well) and treated with IBMX (200 μM) in the presence or absence of 10 and 20 nM of epoxomicin. Gli3^190 protein expression was detected by Western blot using anti-Flag antibody.

[5] = tested on: neonatal murine calvarial bones; test: Organ culture of neonatal murine calvarial bones, bone formation; assay type: cell-based, ICR Swiss mice; details: for effect on osteoblast differentiation and bone formation after transfection of trGli3: calvariae transfected with trGli3, epoxomicin 20 nM, 3 days, histology
Protocol: Organ cultures of neonatal murine calvarial bones were used as described by Traianedes, K., et al., Endocrinology (1998) 139:3178-3184. Bones were removed from the calvaria of 4-5 day old ICR Swiss mice and cultured in BGJ medium with 0.1% BSA for 72 hours together with test compounds. Mouse noggin/FC chimera was purchased from R&D Systems, Stillwater, Minn., and added at 2 μg/ml.
Neonatal murine calvariae were transfected with either empty vector or truncated Gli3 (trGli3) using lipofectamine plus reagents for the first 24 hours and then treated with epoxomicin (20 nM) for the remaining 3 days of the assay according to Traianedes, et al., 1998 (supra).

[6] = tested on: Gli3; test: Gli3 processing in 293 cells transfected with Flag-Gli3, Western blot; assay type: cell-based, human; details: for band of short form Gli3^85: FIG. 2a
Protocol: as §3
293 cells were plated in 6-well culture plates and cultured with Dulbecco's modified Eagle's medium (DMEM, Sigma). 24 hours after plating, the cells were transiently transfected with Flag-Gli3 cDNA (1 μg/well) and treated with 3-isobutyl-1-methylxanthine (IBMX, 200 μM) in the presence or absence of 1, 10 and 100 nM epoxomicin or PS-1. The steady-state protein levels of Gli3 precursor protein (Gli3^190) or processed form of Gli3 (Gli3^85) were detected by Western blot using anti-Flag antibody.

[7] = tested on: BMP-2 protein; test: BMP-2 protein production by ELISA, MG-63 cell lysates; assay type: cell-based; details: cultured human MG-63 osteoblastic cells, 24 h
Protocol: MG-63 cells were plated in 12-well culture plates at the density of 2.5×10^5 cells/well and cultured with αMEM supplemented with 10% FCS for 24 h. The cells were treated with the proteasome inhibitors epoxomicin and PSI for 24 h. After incubation, the cell lysates were extracted with 150 μl lysis buffer (50 mM TrisHCl pH 8.0, 150 mM NaCl, 1% NP40) with protease inhibitors. The lysates were used to measure the BMP-2 protein production by ELISA.
For protein production, 96-well Dynatech white plates were coated with mouse anti-hBMP-2 monoclonal antibody (raised against rhBMP-2) at 1 μg/ml in PBS (100 μl/well) and incubated overnight at 4° C. The following procedures were performed at room temperature. The plates were washed 3 times with 300 μl of PBS-T wash buffer (PBS and 0.05% Tween) and then blocked with 300 μl 0.2% I-Block solution (0.2% I-Block in PBS-T, Applied Biosystems) for 2 h. 100 μl cell lysates were then added and incubated with coated antibody for 2 h. […] After 3 time washing with wash buffer and 3 time washing with assay buffer, the plates were incubated with 100 μl Tropix enzyme substrate (Applied Biosystems) in dark for 10 min and then read light emission with a Luminometer. rhBMP-2 (R&D) was used to generate the standard curve.

[8] = tested on: murine BMP-2 promoter (−2712/+165); test: BMP-2 promoter-luciferase assay in stably transfected 2T3 cells; assay type: cell-based
Protocol: as §1
The cells were plated in 96-well culture plates and cultured for 24 h. The cells were then treated with different proteasome inhibitors or other compounds for additional 24 h. The cell lysates were extracted and luciferase activities were measured by a luciferase assay kit (Promega, Madison, Wis.) using a Luminometer.

[9] = tested on: BMP-2 mRNA; test: BMP-2 mRNA expression, Northern blot, MG-63 cells; assay type: cell-based; details: cultured human MG-63 osteoblastic cells
Protocol: as §1, §2

[10] = noggin 2 μg/ml, 72 hours culture

CC(C)C[C@@H](C=O)NC(=O)[C@H](CC(C)C)NC(=O)[C@H](CC(C)C)NC(=O)OCc1ccccc1 [MG-132] (Cbz-Leu-Leu-Leu-aldehyde)
Smurf1-induced Smad1 degradation ([1]; C2C12 cells, 5 μM): partially or completely reversed
increase of endogenous Smad1 protein level ([2]; 5 μM): 6.5 fold

CC[C@H](C)[C@H](NC(=O)[C@H]([C@@H](C)CC)N(C)C(C)=O)C(=O)N[C@H](C(=O)N[C@@H](CC(C)C)C(=O)[C@@]1(C)CO1)[C@@H](C)O [epoxomicin]
expression of BMP-4 mRNA [3]: no effect
degradation of Gli3 precursor protein (Gli3^190) [4]: prevent the degradation
bone formation in calvarial cultures ([5]; 72 hours culture): bone stimulating effects
effect on osteoblast differentiation and bone formation after transfection of trGli3 [5]: impaired markedly
band of short form Gli3^85 ([6]; 1 nM epoxomicin): substantially reduced
band of short form Gli3^85 ([6]; 10 nM epoxomicin): abolished
Gli3 processing to its processed shorter form ([6]; IBMX 200 μM): impaired
Smurf1-induced Smad1 degradation ([1]; C2C12 cells, 10, 20 and 40 nM, FIG. 5c): partially or completely reversed
BMP-2 protein expression [7]: increased
potency as stimulators of BMP-2 expression compared with the statins [8]: considerably more potent
luciferase activity (BMP-2 promoter) ([8]; treated 24 h): increased
BMP-2 mRNA expression [9]: increased

CC(=O)N[C@@H](CSC(=O)[C@]1([C@@H](O)C(C)C)NC(=O)[C@H](C)[C@@H]1O)C(=O)O [lactacystin]
Smurf1-induced Smad1 degradation ([1]; C2C12 cells, 10 μM): partially or completely reversed
increase of endogenous Smad1 protein level ([2]; 10 μM): 3.7 fold

aFGF: acidic fibroblast growth factor, unrelated anabolic agent
bone formation in calvarial cultures ([5]; 72 hours culture): bone formation stimulated
effect on osteoblast differentiation and bone formation after transfection of trGli3 [5]: no effect

noggin
effect of noggin on bone formation stimulated by aFGF [5, 10]: no effect
effect of noggin on bone stimulating effect of BMP-2 [5, 10]: inhibited
effect of noggin on bone stimulating effect of PS-1 [5, 10]: inhibited
effect of noggin on bone stimulating effect of epoxomicin [5, 10]: inhibited

Reference: patent US20030092603A1, “Identification of specific modulators of bone formation” (priority 2001, published 2003)
